From US9244073B2, “Assays for detecting enzymatic activity” (Wellstat Diagnostics, LLC, priority 2011, dated 2016)
Primed or numbered codes have the meaning given here. KLCBiot = lysine with long-chain biotin conjugated to the side-chain primary amine (Lysine-Long-Chain-Biotin); mPeg2 = hydrophilic 9-atom polyethylene (PEG) spacer; Bz′ = not defined here

Experiments:
FXa [1] = assay: Detecting FXa activity by detection of a neoepitope with TAG Plus anti-FLAG M1 detector antibody (ECL immunoassay); assay type: biochemical
Text: FXa activity can be measured using peptides comprising a FXa recognition site (-IEGR-) (SEQ ID NO:1) at their N-terminus followed by an amino acid sequence which can be cleaved “off” by FXa. For example, peptide sequence III, below, can be cleaved by FXa to produce peptide sequence IV below. The FXa cleavage of the peptide bond after the arginine residue of the -IEGR- sequence (SEQ ID NO:1) produces a free NH2 group at the N-terminal of the peptide sequence (sequence IV) and the peptide sequence becomes a new epitope (neoepitope) after cleavage.
A FXa activity calibrator curve was set up in a 96-well U bottom microtiter plate containing 100 μL of a 3-fold serial dilution of FXa at 500, 167, 55.6, 18.5, 6.17, 2.06 and 0.686 ng/mL in an assay buffer [50 mM Tris-HCl (pH 7.4), 100 mM NaCl, 0.5% BSA, 10 mg/mL ciprofloxacin, 0.5% Tween-20 and 7.0 mM CaCl2] and 50 μL of a master mix of FXa detection reagent containing 200 μg/mL of M280-SA beads, 600 ng/mL of a peptide sequence V and 1000 ng/mL of TAG Plus anti-FLAG® M1 antibody (Example 2) in the same assay buffer. The peptide sequence V comprises peptide sequence III and a sequence HHHHHH(mPeg2)(KLCBiot)-amide (SEQ ID NO:9). The HHHHHH(mPeg2) (SEQ ID NO:9), a mini-PEG molecule with 9 carbon polyethylene molecule, serves as a spacer, which was conjugated with a lysine at its C-terminus. A biotin molecule was conjugated to the primary amine group on the side chain of the lysine. The peptide can be captured through the high affinity interaction between biotin and streptavidin molecule.
The plate was incubated on a hot plate (Digital Heatblock, Cat. 12621-100, VWR International, LLC., West Chester, Pa. 19380) at 37° C. for 10 or 20 minutes. After the incubation, the beads were washed once in 150 μL of the PBS-based buffer solution (Example 1) and recovered by attaching a plate magnet to the 96-well plate (LIFESEP™ 96F, Dexter Magnetic Technologies Inc., Elk Grove Village, Ill. 60007). Beads were resuspended in 150 μL of the PBS-based buffer and read in a M1MR analyzer. […] Under both incubation conditions, FXa activities were detectable at 1.00 ng/mL or lower concentrations of FXa (signal/background ≧3.0). This lower detection limit is unexpectedly much better than that achieved in Example 1.

FXa [2] = assay: Detecting FXa activity by capturing the TAG-labeled neoepitope with anti-FLAG M1 beads (ECL); assay type: biochemical
Description: A FXa activity calibrator curve was set up in a 96-well U bottom microtiter plate containing 50 μL of a 3-fold serial dilution of FXa at 1000, 333, 111, 37.0, 12.3, 4.12 and 1.37 ng/mL in the assay buffer (Example 4) and 25 μL of NH2-IEGRDYKDDDDKGS-TAG (SEQ ID NO:5) (1.25, 2.5 or 5.0 μg/mL) in a hot plate at 37° C. for 10 minutes. After the incubation, 50 μL of Bi-anti-FLAG®-M1 antibody prebound beads (200 μg/mL concentration at the ratio of 10 μg of antibody per 1.0 mg of beads) were added, followed by an incubation for another 20 minutes at 37° C. After the incubation, the beads were washed once in 150 μL of the PBS-based buffer solution (Example 3) and were resuspended in 150 μL of the PBS-based buffer before beads were read in a M1MR analyzer (BioVeris).

[3] = 10 minute incubation, FXa 0.686 ng/mL
[4] = 10 minute incubation, FXa 2.06 ng/mL
[5] = 10 minute incubation, FXa 6.17 ng/mL
[6] = 10 minute incubation, FXa 18.5 ng/mL
[7] = 10 minute incubation, FXa 55.6 ng/mL
[8] = 10 minute incubation, FXa 167 ng/mL
[9] = 10 minute incubation, FXa 500 ng/mL
[10] = 20 minute incubation, FXa 0.686 ng/mL
[11] = 20 minute incubation, FXa 2.06 ng/mL
[12] = 20 minute incubation, FXa 6.17 ng/mL
[13] = 20 minute incubation, FXa 18.5 ng/mL
[14] = 20 minute incubation, FXa 55.6 ng/mL
[15] = 20 minute incubation, FXa 167 ng/mL
[16] = 20 minute incubation, FXa 500 ng/mL
[17] = substrate 1.25 μg/mL, FXa 1.37 ng/mL
[18] = substrate 1.25 μg/mL, FXa 4.12 ng/mL
[19] = substrate 1.25 μg/mL, FXa 12.3 ng/mL
[20] = substrate 1.25 μg/mL, FXa 37.0 ng/mL
[21] = substrate 1.25 μg/mL, FXa 111 ng/mL
[22] = substrate 1.25 μg/mL, FXa 333 ng/mL
[23] = substrate 1.25 μg/mL, FXa 1000 ng/mL
[24] = substrate 2.5 μg/mL, FXa 1.37 ng/mL
[25] = substrate 2.5 μg/mL, FXa 4.12 ng/mL
[26] = substrate 2.5 μg/mL, FXa 12.3 ng/mL
[27] = substrate 2.5 μg/mL, FXa 37.0 ng/mL
[28] = substrate 2.5 μg/mL, FXa 111 ng/mL
[29] = substrate 2.5 μg/mL, FXa 333 ng/mL
[30] = substrate 2.5 μg/mL, FXa 1000 ng/mL
[31] = substrate 5.0 μg/mL, FXa 1.37 ng/mL
[32] = substrate 5.0 μg/mL, FXa 4.12 ng/mL
[33] = substrate 5.0 μg/mL, FXa 12.3 ng/mL
[34] = substrate 5.0 μg/mL, FXa 37.0 ng/mL
[35] = substrate 5.0 μg/mL, FXa 111 ng/mL
[36] = substrate 5.0 μg/mL, FXa 333 ng/mL
[37] = substrate 5.0 μg/mL, FXa 1000 ng/mL

FXa, sequence (P00742 41-179 limits assumed): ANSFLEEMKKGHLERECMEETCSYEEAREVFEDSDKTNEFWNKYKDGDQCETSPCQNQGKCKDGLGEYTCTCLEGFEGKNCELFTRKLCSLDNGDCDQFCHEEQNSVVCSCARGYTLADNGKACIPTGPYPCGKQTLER
FXa, sequence (P00742 235-488 limits assumed): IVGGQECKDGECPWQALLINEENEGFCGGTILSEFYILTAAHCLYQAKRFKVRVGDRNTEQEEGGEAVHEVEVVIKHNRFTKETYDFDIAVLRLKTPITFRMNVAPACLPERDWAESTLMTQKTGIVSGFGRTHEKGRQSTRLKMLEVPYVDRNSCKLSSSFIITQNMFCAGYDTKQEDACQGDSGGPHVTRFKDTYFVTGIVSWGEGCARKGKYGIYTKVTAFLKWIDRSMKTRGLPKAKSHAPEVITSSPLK

Substance: Bz-IEGRDYKDDDDKGSHHHHHH(mPeg2)(KLCBiot)-amide ({Bz′}-IEGRDYKDDDDKGSHHHHHH-{mPeg2-KLCBiot-NH2}) [Peptide sequence V]
- Mean Signal (FXa [1]; [3]): 856
- Signal/Background (FXa [1]; [3]): 2.5
- Mean Signal (FXa [1]; [4]): 1427
- Signal/Background (FXa [1]; [4]): 4.1
- Mean Signal (FXa [1]; [5]): 3105
- Signal/Background (FXa [1]; [5]): 9.0
- Mean Signal (FXa [1]; [6]): 8793
- Signal/Background (FXa [1]; [6]): 25
- Mean Signal (FXa [1]; [7]): 33734
- Signal/Background (FXa [1]; [7]): 98
- Mean Signal (FXa [1]; [8]): 113240
- Signal/Background (FXa [1]; [8]): 328
- Mean Signal (FXa [1]; [9]): 298048
- Signal/Background (FXa [1]; [9]): 864
- Mean Signal (FXa [1]; [10]): 1047
- Signal/Background (FXa [1]; [10]): 3.3
- Mean Signal (FXa [1]; [11]): 2109
- Signal/Background (FXa [1]; [11]): 6.6
- Mean Signal (FXa [1]; [12]): 6035
- Signal/Background (FXa [1]; [12]): 19
- Mean Signal (FXa [1]; [13]): 20653
- Signal/Background (FXa [1]; [13]): 65
- Mean Signal (FXa [1]; [14]): 73974
- Signal/Background (FXa [1]; [14]): 232
- Mean Signal (FXa [1]; [15]): 224915
- Signal/Background (FXa [1]; [15]): 706
- Mean Signal (FXa [1]; [16]): 497703
- Signal/Background (FXa [1]; [16]): 1562

Substance: NH2-IEGRDYKDDDDKGS-TAG (TAG label; includes cleavage recognition site and binding site for anti-FLAG antibody)
- Mean Signal (FXa [2]; [17]): 1140
- Signal/Background (FXa [2]; [17]): 1.9
- Mean Signal (FXa [2]; [18]): 2174
- Signal/Background (FXa [2]; [18]): 3.7
- Mean Signal (FXa [2]; [19]): 4437
- Signal/Background (FXa [2]; [19]): 7.5
- Mean Signal (FXa [2]; [20]): 10667
- Signal/Background (FXa [2]; [20]): 18
- Mean Signal (FXa [2]; [21]): 20521
- Signal/Background (FXa [2]; [21]): 35
- Mean Signal (FXa [2]; [22]): 52797
- Signal/Background (FXa [2]; [22]): 89
- Mean Signal (FXa [2]; [23]): 69011
- Signal/Background (FXa [2]; [23]): 116
- Mean Signal (FXa [2]; [24]): 1393
- Signal/Background (FXa [2]; [24]): 1.6
- Mean Signal (FXa [2]; [25]): 3828
- Signal/Background (FXa [2]; [25]): 4.5
- Mean Signal (FXa [2]; [26]): 7696
- Signal/Background (FXa [2]; [26]): 9.0
- Mean Signal (FXa [2]; [27]): 20144
- Signal/Background (FXa [2]; [27]): 24
- Mean Signal (FXa [2]; [28]): 41788
- Signal/Background (FXa [2]; [28]): 49
- Mean Signal (FXa [2]; [29]): 62747
- Signal/Background (FXa [2]; [29]): 73
- Mean Signal (FXa [2]; [30]): 78193
- Signal/Background (FXa [2]; [30]): 91
- Mean Signal (FXa [2]; [31]): 3725
- Signal/Background (FXa [2]; [31]): 2.1
- Mean Signal (FXa [2]; [32]): 6363
- Signal/Background (FXa [2]; [32]): 3.6
- Mean Signal (FXa [2]; [33]): 14866
- Signal/Background (FXa [2]; [33]): 8.4
- Mean Signal (FXa [2]; [34]): 32274
- Signal/Background (FXa [2]; [34]): 18
- Mean Signal (FXa [2]; [35]): 62147
- Signal/Background (FXa [2]; [35]): 35
- Mean Signal (FXa [2]; [36]): 78710
- Signal/Background (FXa [2]; [36]): 45
- Mean Signal (FXa [2]; [37]): 86900
- Signal/Background (FXa [2]; [37]): 49
